Measurements reported in publication PMC7594722, “Investigation of pesticides on honey bee carbonic anhydrase inhibition” (Journal of Enzyme Inhibition and Medicinal Chemistry, 2020).
Where two headings read alike, the source gives them in different places.

Tests used:
[1] = molecular target: AmCA (Apis mellifera spermatheca carbonic anhydrase); conditions: AmCA inhibition data from previous study; cited from earlier work
[2] = molecular target: AmCA (Apis mellifera spermatheca carbonic anhydrase); assay: AmCA inhibition, colorimetric CO2 hydrase assay; assay type: biochemical; conditions: AmCA from honey bee spermatheca, triplicate, enzyme concentration 8.9 nM
Method: Bee spermatheca samples were washed three times with 50 mM Tris/Sulphate (pH 7.8). Spermatecha samples taken from 200 bees were combined and homogenised with liquid nitrogen, then placed in the same buffer and centrifuged at 4 °C, 15,000 g for 30 min. The precipitate portion was discarded and the supernatant portion was separated and used in subsequent studies.
The enzyme was purified using Sepharose-4B-sulfanilamide affinity gel prepared by our group. Aniline was used as a spacer arm in the chromatography column. The column was then equilibrated with 25 mM Tris-HCl/0.1M Na2SO4 (pH 8.7) and the gel was washed with 25 mM Tris-HCl/22 mM Na2SO4 (pH 8.7). Finally, elution was performed with 1 M NaCl/25 mM Na2HPO4 (pH 6.3). The temperature was kept at 4 °C during all experiments.
The effects of methomyl, oxamyl, deltamethrin, dichlorodiphenyltrichloroethane ([…]), cypermethrin and diazinon on AmCA activities were assayed colorimetrically using the CO2 hydrase assay, in triplicate at each concentration of inhibitor (ranging from 1 nM to 10 mM). Control enzyme activity was taken as 100%. An activity % versus inhibitor graph was drawn for all pesticides (Microsoft Office 2000, Excel). Pesticide concentrations that caused 50% inhibition (IC50) of the enzyme activity were thus obtained graphically using a regression software. The enzyme concentration in the assay system was 8.9 nM.

[3] = tested on: honey bees and bumblebees; conditions: cited from earlier work
[4] = tested on: honey bees and bumblebees; conditions: cited from earlier work; remark: listed apart in the source

Structure (SMILES)	IC50 [1] [nM]	IC50 [2] [nM]	topical lethal dose (LD50) [3] [μg/bee]	oral dose rates (oral LD50) [4] [μg/bee]
CC(C)(C)C(O)(CCc1ccc(Cl)cc1)Cn1cncn1 (stereo not drawn) [Tebuconazole, tebuconazole]	3			
CNC(=O)ON=C(C)SC [Methomyl, methomyl]		2.3 ± 0.1	0.49	3.38
CNC(=O)Oc1ccccc1OC(C)C [Propoxur, propoxur]	32.1			
CC1(C)[C@H](C(=O)O[C@H](C#N)c2cccc(Oc3ccccc3)c2)[C@@H]1C=C(Br)Br [Deltamethrin, deltamethrin]		2.8 ± 0.1	0.02	
CNC(=O)O/N=C(\SC)C(=O)N(C)C [Oxamyl, oxamyl]		2.5 ± 0.1		
CNC(=O)Oc1cccc2ccccc12 [Carbaryl, carbaryl]	3.1			
CC1(C)C(C=C(Cl)Cl)C1C(=O)OC(C#N)c1cccc(Oc2ccccc2)c1 (stereo not drawn) [Cypermethrin, cypermethrin]		7.8 ± 0.3	0.03	0.06
CNC(=O)Oc1cccc2c1OC(C)(C)C2 [Carbonfuran, carbofuran]	8.7			
CCNc1nc(Cl)nc(NC(C)C)n1 [Atrazine, atrazine]	16.5			
CCNc1nc(Cl)nc(NCC)n1 [Simazin, simazine]	27.3			
CCOP(=S)(OCC)Oc1cc(C)nc(C(C)C)n1 [Diazinon, diazinon]		38.5 ± 1.2	0.38	0.21
